Data set [1] deals with T1, OCT1 (Homo sapiens, UniProt O15245).
T1 sequence (O15245 1-554): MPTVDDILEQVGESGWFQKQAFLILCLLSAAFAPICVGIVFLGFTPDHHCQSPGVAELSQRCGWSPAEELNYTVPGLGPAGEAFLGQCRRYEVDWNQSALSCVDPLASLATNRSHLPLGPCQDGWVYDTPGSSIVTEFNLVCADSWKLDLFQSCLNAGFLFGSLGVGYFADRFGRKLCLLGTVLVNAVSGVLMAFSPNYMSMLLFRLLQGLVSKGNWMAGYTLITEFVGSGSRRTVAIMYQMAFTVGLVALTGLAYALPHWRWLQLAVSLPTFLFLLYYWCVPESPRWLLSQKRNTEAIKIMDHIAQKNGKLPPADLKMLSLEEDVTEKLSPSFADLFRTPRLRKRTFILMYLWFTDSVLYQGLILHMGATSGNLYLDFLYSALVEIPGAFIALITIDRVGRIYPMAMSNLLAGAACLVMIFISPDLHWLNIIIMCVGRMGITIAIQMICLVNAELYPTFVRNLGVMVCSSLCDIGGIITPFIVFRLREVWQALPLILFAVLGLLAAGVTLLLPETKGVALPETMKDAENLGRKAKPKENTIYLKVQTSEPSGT
The following applies: read-out: IC50 for OCT1 reported in the literature; cited from earlier work.

The target of data set [2] is T2, OCT2 (Homo sapiens, UniProt O15244).
T2 sequence (O15244 1-555): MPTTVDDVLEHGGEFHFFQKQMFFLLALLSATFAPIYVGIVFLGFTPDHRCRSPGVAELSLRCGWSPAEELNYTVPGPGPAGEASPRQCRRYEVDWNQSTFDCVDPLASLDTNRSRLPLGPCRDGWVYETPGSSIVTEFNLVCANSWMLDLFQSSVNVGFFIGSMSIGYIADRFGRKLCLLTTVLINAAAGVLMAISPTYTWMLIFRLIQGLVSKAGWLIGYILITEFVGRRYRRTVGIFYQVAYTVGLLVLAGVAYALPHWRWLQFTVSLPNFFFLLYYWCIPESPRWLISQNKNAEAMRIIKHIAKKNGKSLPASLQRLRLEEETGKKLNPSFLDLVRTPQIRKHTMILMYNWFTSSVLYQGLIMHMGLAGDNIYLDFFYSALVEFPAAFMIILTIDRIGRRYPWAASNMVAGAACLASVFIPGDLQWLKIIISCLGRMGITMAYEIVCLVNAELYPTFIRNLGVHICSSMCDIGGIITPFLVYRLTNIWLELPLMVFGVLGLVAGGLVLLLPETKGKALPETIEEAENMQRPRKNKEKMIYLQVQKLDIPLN
The note with it: read-out: IC50 for OCT2 reported in the literature; cited from earlier work.

The target in a further data set is T3, MATE1 (Homo sapiens, UniProt Q96FL8).
T3 sequence (Q96FL8 1-570): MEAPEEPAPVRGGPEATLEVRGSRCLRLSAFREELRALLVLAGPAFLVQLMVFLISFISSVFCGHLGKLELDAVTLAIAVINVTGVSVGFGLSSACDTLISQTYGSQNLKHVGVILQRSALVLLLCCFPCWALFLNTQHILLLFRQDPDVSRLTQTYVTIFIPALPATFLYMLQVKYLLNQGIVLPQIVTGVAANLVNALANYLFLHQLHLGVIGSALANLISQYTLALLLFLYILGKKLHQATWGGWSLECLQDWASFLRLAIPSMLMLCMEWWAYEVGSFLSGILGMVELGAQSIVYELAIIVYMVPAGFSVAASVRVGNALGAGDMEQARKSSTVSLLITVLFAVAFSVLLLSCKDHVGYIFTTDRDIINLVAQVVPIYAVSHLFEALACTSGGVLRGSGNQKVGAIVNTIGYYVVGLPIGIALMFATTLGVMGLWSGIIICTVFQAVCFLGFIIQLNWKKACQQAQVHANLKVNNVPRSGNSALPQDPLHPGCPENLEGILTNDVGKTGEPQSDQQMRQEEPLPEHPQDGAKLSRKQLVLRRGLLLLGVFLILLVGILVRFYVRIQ
The note with it: read-out: IC50 for MATE1 reported in the literature; cited from earlier work.

Data set [3] deals with T4, MATE2-K (Homo sapiens, UniProt Q86VL8). The note with it: read-out: IC50 for MATE2-K reported in the literature; cited from earlier work.
T4 sequence (Q86VL8 1-566 isoform Q86VL8-3): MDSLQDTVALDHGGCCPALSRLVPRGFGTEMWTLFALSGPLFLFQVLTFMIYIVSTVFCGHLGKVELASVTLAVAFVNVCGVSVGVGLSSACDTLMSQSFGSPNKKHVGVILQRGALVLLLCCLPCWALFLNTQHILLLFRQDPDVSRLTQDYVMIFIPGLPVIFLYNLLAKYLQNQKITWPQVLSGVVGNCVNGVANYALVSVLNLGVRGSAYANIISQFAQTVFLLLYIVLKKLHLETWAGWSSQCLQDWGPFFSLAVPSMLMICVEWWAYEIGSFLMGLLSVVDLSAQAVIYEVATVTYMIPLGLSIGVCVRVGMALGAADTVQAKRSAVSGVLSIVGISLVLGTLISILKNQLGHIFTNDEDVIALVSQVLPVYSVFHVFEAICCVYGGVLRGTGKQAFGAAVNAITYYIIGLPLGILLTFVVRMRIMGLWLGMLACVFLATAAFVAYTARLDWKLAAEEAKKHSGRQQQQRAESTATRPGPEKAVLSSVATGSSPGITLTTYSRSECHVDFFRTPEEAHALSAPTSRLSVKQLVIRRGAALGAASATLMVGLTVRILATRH
Data set [4] addresses T1, OCT1. The experiment in a line: Inhibition of OCT1-mediated [14C]metformin uptake in HEK293-OCT1 cells. Details: host or cells: HEK293. In kind it is cell-based. As to the method:
(§1) HEK293 cells overexpressing OCT1, OCT2, MATE1, and MATE2-K (HEK293-OCT1, -OCT2, MATE1, and MATE2-K, respectively; Corning, Tewksbury, MA, USA) were used and characterized as previously described. […] In HEK293-MATE1 or -MATE2-K cells, 2 mM sodium butyrate was also supplemented in the culture medium. […] Sigma, St. Louis, MO, USA) and incubated for 30 min in HBSS. In HEK293-MATE1, or -MATE2-K cells, 40 mM ammonium chloride was also added for the outwardly directed proton gradient. […] After the 5 min incubation, cells were washed three times with 200 µL of ice-cold HBSS immediately after placing the plates on ice. Then, the cells were lysed with 10% sodium dodecyl sulfate (SDS) and the cell lysates were mixed with Optiphase cocktail solution. Thereafter, the radioactivity of the cell lysates was measured using a liquid scintillation counter (Microbeta 2, Perkin Elmer Inc., Boston, MA, USA).

The target in data set [5] is T2, OCT2. The experiment in a line: Inhibition of OCT2-mediated [14C]metformin uptake in HEK293-OCT2 cells. The data set is classed as cell-based. Also noted: host or cells: HEK293. As to the method: as §1
Data set [6] addresses T4, MATE2-K. As to the kind of experiment: Inhibition of MATE2-K-mediated [14C]metformin uptake in HEK293-MATE2-K cells. The data set is classed as cell-based. Also noted: host or cells: HEK293. The note with it: read-out: IC50 on MATE2-K-mediated metformin uptake, 10 µM [14C]metformin, 5 min. As to the method:
as §1

A word on the IC50: it is the concentration at which inhibition is half-maximal.

Where two headings read alike, the source gives them in different places.

For the compound `CN/C(=N/CCSCc1nc[nH]c1C)NC#N` [cimetidine], the IC50 is 57 µM on OCT1 [1]; 110 µM at OCT2 [2]; 0.7 µM on MATE1; 4.8 µM on MATE2-K [3]; 61.8 µM against OCT1 [4]; 197 µM against OCT2 [5]. Moreover, at MATE2-K [6], the IC50 turned out to be 5.03 µM.
